Measurements taken from patent publication US9044501B2, “Method of preventing and/or treating a neurodegenerative disease by administering an extract of Lycoris chejuensis and/or a compound isolated therefrom” (KOREA INSTITUTE OF SCIENCE AND TECHNOLOGY, priority 2009, dated 2015).

How the values were obtained:
viable cells = assay: MTT Cell Proliferation assay, effect on cell death; format: cell-based
Procedure: In order to measure the effect of an extraction or a fraction of Lycoris chejuensis on cell death, MTT Cell Proliferation assay (ATCC catalog #30-1010K, Manassas, USA), which is a conventionally known method, was used. In particular, a cell was treated with various concentrations of an ethanol extract (CJ) of Lycoris chejuensis and a butanol fraction (CJ-3) of Lycoris chejuensis for 8 hours, and then, viable cells were quantified.

[1] = test system: β-secretase product (sAPPβ) production; assay: β-secretase product (sAPPβ) production in APP-transfected HeLa cells, sAPPβ-Wild Type Assay Kit; format: cell-based; conditions: Homo sapiens, read-out: Inhibition rate (%) of sAPPβ production compared to negative control
Description: The cause of inhibition of β-amyloid production in the Experimental example <3> was examined in more detail. β-amyloid was produced from amyloid precursor(APP) by continuous actions of membrane protein hydrolytic enzyme, β-secretase (BACE1), and γ-secretase (Vassa and Citron, Neuron 27, 419-422, 2000). More specifically, β-secretase product(sAPPβ) is produced from amyloid precursor (APP) by the action of β-secretase, from which β-amyloid is produced by the action of γ-secretase.
Based on the above, it was identified whether or not dihydrolycoricidine obtained in Example <2-1> is capable of inhibiting the production of β-secretase product(sAPPβ). Specifically, the same procedure as Experimental example <3> was conducted except that sAPPβ-Wild Type Assay Kit (Immuno-Biological Laboratories Co., Ltd., Japan) was used for quantifying sAPPβ. The negative control means the case to which dihydrolycoricidine was not added.

[2] = test system: β-amyloid (Aβ40) production; assay: β-amyloid (Aβ40) production in APP-transfected HeLa cells, ELISA of culture solution; format: cell-based, human; conditions: for Inhibition rate (%) of Aβ40 production compared to that of negative control: 8 hours
[3] = test system: β-amyloid (Aβ42) production; assay: β-amyloid (Aβ42) production in APP-transfected HeLa cells, ELISA of culture solution; format: cell-based, human; conditions: for Inhibition rate (%) of Aβ42 production compared to that of negative control: 8 hours
[4] = test system: β-amyloid (Aβ40) production; assay: β-amyloid (Aβ40) production in APP-transfected HeLa cells, ELISA of culture solution; format: cell-based, human
Procedure: (§1) In order to examine the effect of the ethanol extract of Lycoris chejuensis obtained in Example <1-1> to inhibit β-amyloid production, HeLa cell line transfected with human amyloid precursor protein(APP) was cultured in DMEM culture medium (Cat. #11995, Gibco, USA). The cell line was supplied by Prof. Tae-Wan Kim, Department of Pathology, Columbia University Medical Center, New York, N.Y.10032, USA.
(§2) To the cell culture solution, the ethanol extract of Lycoris chejuensis (CJ) obtained in Example <1-1> was added, and then, it was cultured at 37° C. for 8 hours, and the amount of β-amyloid secreted in the culture solution was measured. More specifically, in order to quantify β-amyloid, two kinds of β-amyloid (Aβ40, Aβ42), Human β-Amyloid (Aβ40) and Human β-Amyloid (Aβ42) Colorimetric ELISA kits (#KHB3482 and #KHB3442; BioSource International, Inc., USA) were respectively used. The negative control means the case to which the extract of Lycoris chejuensis was not added.

[5] = test system: β-amyloid (Aβ42) production; assay: β-amyloid (Aβ42) production in APP-transfected HeLa cells, ELISA of culture solution; format: cell-based, human
Procedure: as §1, §2

[6] = Homo sapiens, HeLa, 8 h, read-out: Inhibition rate (%) of Aβ40 production compared to that of negative control
[7] = Homo sapiens, HeLa, 8 h, read-out: Inhibition rate (%) of Aβ42 production compared to that of negative control
[8] = 10, 5, 1, 0.5, 0.2, 0.1 and 0.05 μg/ml, 8 hours

## O=C1NC2C(CC(O)C(O)C2O)c2cc3c(cc21)OCO3 (stereo not shown) [dihydrolycoricidine]
Viable cells; 50 μM
  cells died: ≤ 30%
Viable cells; dihydrolycoricidine 5 μM
  Cell death (%) compared to negative control: 18.3%
Viable cells; dihydrolycoricidine 10 μM
  Cell death (%) compared to negative control: 23.3%
Viable cells; dihydrolycoricidine 25 μM
  Cell death (%) compared to negative control: 25.3%
Viable cells; dihydrolycoricidine 50 μM
  Cell death (%) compared to negative control: 28.1%
[1]; 5 μM
  inhibition at 5 µM: 6%
[1]; 10 μM
  inhibition at 10 µM: 12%
[1]; 25 μM
  inhibition at 25 µM: 28.9%
[1]; 50 μM
  inhibition at 50 µM: 36.1%
[2]; Homo sapiens, HeLa, 5 μM, read-out: Inhibition rate (%) of Aβ40 production compared to that of negative control
  inhibition at 5 µM: 28.4%
[2]; Homo sapiens, HeLa, 10 μM, read-out: Inhibition rate (%) of Aβ40 production compared to that of negative control
  inhibition at 10 µM: 56.1%
[2]; Homo sapiens, HeLa, 25 μM, read-out: Inhibition rate (%) of Aβ40 production compared to that of negative control
  inhibition at 25 µM: 59.8%
[2]; Homo sapiens, HeLa, 50 μM, read-out: Inhibition rate (%) of Aβ40 production compared to that of negative control
  inhibition at 50 µM: 63%
[3]; Homo sapiens, HeLa, 5 μM, read-out: Inhibition rate (%) of Aβ42 production compared to that of negative control
  inhibition at 5 µM: 58.8%
[3]; Homo sapiens, HeLa, 10 μM, read-out: Inhibition rate (%) of Aβ42 production compared to that of negative control
  inhibition at 10 µM: 63.8%
[3]; Homo sapiens, HeLa, 25 μM, read-out: Inhibition rate (%) of Aβ42 production compared to that of negative control
  inhibition at 25 µM: 88.8%
[3]; Homo sapiens, HeLa, 50 μM, read-out: Inhibition rate (%) of Aβ42 production compared to that of negative control
  inhibition at 50 µM: 92.2%

## O=C1NC2C(=CC(O)C(O)C2O)c2cc3c(cc21)OCO3 (stereo not shown) [lycoricidine]
Viable cells; 10 μM (lycoricidine)
  cells died: ≤ 20%
Viable cells; 8 h, 0.01 μg/ml
  Cell death (%) compared to negative control: 4.9%
Viable cells; 8 h, 0.1 μg/ml
  Cell death (%) compared to negative control: 11.3%
Viable cells; 8 h, 1 μg/ml
  Cell death (%) compared to negative control: 19.0%
Viable cells; 8 h, 10 μg/ml
  Cell death (%) compared to negative control: 21.1%
[4]; [6]
  inhibition at 0.01 µg/mL: 3.3%
  inhibition at 0.1 µg/mL: 67%
  inhibition at 1 µg/mL: 92.8%
  inhibition at 10 µg/mL: 97.2%
[5]; [7]
  inhibition at 0.01 µg/mL: 16%
  inhibition at 0.1 µg/mL: 81.3%
  inhibition at 1 µg/mL: 97.5%
  inhibition at 10 µg/mL: 100%

## COC1C=C2C3CN(Cc4cc5c(cc43)OCO5)C2CC1O (stereo not shown) [2-methoxypancracine]
Viable cells; 5 μg/ml (FIG. 11)
  cells died: ≤ 10%
[4]; [8]
  β-amyloid (Aβ40) production (FIG. 7): inhibited by 2-methoxypancracine in a concentration dependent manner
[5]; [8]
  β-amyloid (Aβ42) production (FIG. 7): inhibited by 2-methoxypancracine in a concentration dependent manner

## O=C1NC2C(=CC(O)C(O)C2O)c2cc3c(c(O)c21)OCO3 (stereo not shown) [lycoricidinol]
Viable cells; 10 μM (lycoricidinol)
  cells died: ≤ 20%
Viable cells; lycoricidinol 0.01 μg/ml
  Cell death (%) compared to negative control: 10.3%
Viable cells; lycoricidinol 0.1 μg/ml
  Cell death (%) compared to negative control: 11.6%
Viable cells; lycoricidinol 1 μg/ml
  Cell death (%) compared to negative control: 16.5%
Viable cells; lycoricidinol 10 μg/ml
  Cell death (%) compared to negative control: 19.3%
[2]; lycoricidinol 0.01 μg/ml
  Inhibition rate (%) of Aβ40 production compared to that of negative control: 25.0%
[2]; lycoricidinol 0.1 μg/ml
  Inhibition rate (%) of Aβ40 production compared to that of negative control: 90.4%
[2]; lycoricidinol 1 μg/ml
  Inhibition rate (%) of Aβ40 production compared to that of negative control: 97.8%
[2]; lycoricidinol 10 μg/ml
  Inhibition rate (%) of Aβ40 production compared to that of negative control: 98.4%
[3]; lycoricidinol 0.01 μg/ml
  Inhibition rate (%) of Aβ42 production compared to that of negative control: 44.0%
[3]; lycoricidinol 0.1 μg/ml
  Inhibition rate (%) of Aβ42 production compared to that of negative control: 97.0%
[3]; lycoricidinol 1 μg/ml
  Inhibition rate (%) of Aβ42 production compared to that of negative control: 100%
[3]; lycoricidinol 10 μg/ml
  Inhibition rate (%) of Aβ42 production compared to that of negative control: 100%
